According to patent EP3154958B1, “PHOSPHATIDYLINOSITOL 3-KINASE INHIBITORS” (Gilead Sciences, Inc., priority 2014, dated 2015):

How the values were obtained:
Format in all cases: biochemical
PI3Kβ = molecular target: T1, PI3Kβ (Homo sapiens, UniProt P42338); test: TR-FRET enzymatic activity assay, PI3Kβ; settings: for PI3Kγ/PI3Kβ ratio: ratio of IC50 values; for IC50: recombinant heterodimeric PI3Kβ 25-50 pM, 2× Km ATP, 30 minutes at 25°C
T1 construct: made in house
Description: (§1) The compounds of formula (I) were characterized for their enzymatic activity against the PI3K isoforms. The activities were measured using a time-resolved fluorescence resonance energy transfer (TR-FRET) assay.

PI3Kγ = molecular target: T2, PI3Kγ (Homo sapiens, UniProt P48736); test: TR-FRET enzymatic activity assay, PI3Kγ; settings: recombinant heterodimeric PI3Kγ 2 nM, 2× Km ATP, 30 minutes at 25°C
T2 construct: made in house
Description: as §1

PI3Kδ = molecular target: T3, PI3Kδ (Homo sapiens, UniProt O00329); test: TR-FRET enzymatic activity assay, PI3Kδ; settings: recombinant heterodimeric PI3Kδ 25-50 pM, 2× Km ATP, 30 minutes at 25°C
T3 construct: made in house
Description: as §1

T3 sequence (O00329 whole entry): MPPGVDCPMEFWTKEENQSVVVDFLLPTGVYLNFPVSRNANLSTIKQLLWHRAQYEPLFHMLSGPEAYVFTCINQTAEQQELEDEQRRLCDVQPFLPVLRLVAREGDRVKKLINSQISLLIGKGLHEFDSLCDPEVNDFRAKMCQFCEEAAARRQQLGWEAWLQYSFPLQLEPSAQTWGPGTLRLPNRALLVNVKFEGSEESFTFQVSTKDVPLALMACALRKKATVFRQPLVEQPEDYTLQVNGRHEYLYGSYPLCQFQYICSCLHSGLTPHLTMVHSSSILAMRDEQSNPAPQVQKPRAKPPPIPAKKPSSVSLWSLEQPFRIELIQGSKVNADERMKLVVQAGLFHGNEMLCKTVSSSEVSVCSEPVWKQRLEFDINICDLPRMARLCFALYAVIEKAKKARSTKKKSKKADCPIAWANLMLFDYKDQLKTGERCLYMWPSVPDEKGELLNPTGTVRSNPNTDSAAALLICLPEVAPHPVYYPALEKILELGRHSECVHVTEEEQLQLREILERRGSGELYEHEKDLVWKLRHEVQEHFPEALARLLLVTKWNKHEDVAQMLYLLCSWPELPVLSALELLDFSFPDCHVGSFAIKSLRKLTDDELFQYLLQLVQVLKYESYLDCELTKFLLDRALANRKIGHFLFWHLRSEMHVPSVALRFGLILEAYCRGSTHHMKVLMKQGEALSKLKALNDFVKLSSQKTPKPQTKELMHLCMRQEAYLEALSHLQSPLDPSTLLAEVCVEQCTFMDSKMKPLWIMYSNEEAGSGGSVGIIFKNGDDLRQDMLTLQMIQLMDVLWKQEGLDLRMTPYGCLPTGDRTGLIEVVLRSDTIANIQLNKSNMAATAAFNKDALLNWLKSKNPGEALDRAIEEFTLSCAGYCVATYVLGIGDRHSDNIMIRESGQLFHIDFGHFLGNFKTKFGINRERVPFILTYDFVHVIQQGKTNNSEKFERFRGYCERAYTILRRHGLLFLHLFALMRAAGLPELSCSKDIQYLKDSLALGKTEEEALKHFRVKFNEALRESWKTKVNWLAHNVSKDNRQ
T3 sequence (P27986 whole entry partner): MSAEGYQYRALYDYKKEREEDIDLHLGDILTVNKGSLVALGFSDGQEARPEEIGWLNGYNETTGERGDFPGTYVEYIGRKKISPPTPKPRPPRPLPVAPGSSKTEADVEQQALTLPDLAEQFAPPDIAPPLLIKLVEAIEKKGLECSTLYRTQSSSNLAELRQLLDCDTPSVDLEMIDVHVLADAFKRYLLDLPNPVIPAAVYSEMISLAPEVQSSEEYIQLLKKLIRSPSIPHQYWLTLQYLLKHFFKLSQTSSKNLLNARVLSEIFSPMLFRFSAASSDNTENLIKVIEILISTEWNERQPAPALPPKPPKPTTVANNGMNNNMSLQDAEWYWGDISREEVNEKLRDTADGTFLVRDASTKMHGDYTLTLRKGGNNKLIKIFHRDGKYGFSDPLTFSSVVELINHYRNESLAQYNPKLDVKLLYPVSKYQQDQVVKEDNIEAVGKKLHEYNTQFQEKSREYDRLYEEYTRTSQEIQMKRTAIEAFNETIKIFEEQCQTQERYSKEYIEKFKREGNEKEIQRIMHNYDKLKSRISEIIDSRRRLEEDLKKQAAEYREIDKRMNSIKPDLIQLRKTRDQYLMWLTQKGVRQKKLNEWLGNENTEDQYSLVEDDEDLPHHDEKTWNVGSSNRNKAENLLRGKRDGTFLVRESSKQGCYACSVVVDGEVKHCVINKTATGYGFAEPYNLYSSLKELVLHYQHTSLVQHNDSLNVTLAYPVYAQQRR
T1 sequence (P42338 whole entry): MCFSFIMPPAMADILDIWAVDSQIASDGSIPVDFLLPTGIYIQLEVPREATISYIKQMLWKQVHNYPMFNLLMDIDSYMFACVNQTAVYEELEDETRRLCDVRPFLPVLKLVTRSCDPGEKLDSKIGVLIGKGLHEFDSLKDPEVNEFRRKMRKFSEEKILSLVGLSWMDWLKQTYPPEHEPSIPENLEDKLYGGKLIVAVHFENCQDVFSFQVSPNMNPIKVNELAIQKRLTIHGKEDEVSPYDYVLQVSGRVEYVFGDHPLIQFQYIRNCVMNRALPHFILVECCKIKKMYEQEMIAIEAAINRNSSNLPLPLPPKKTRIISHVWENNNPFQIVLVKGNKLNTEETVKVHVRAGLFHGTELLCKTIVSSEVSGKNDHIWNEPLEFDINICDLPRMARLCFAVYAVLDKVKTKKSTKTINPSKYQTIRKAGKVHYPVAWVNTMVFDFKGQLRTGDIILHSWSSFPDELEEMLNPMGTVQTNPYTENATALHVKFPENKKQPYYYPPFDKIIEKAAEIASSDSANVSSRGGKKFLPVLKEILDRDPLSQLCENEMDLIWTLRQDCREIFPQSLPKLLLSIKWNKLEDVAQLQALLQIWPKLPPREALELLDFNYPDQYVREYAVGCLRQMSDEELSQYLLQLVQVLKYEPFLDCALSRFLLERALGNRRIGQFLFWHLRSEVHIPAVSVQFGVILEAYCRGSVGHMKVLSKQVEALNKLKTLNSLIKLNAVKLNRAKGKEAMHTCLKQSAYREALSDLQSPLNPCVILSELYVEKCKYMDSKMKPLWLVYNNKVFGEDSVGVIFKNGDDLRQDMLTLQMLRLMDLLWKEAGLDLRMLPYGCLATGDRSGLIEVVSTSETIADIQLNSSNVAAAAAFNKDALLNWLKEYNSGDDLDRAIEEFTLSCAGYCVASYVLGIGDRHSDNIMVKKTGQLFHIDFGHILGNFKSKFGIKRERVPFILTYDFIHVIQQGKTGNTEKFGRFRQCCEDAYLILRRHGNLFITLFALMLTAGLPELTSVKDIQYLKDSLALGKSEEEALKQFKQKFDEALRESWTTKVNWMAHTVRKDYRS
T1 sequence (P27986 whole entry partner): as the sequence (P27986 whole entry partner) above
T2 sequence (P48736 whole entry): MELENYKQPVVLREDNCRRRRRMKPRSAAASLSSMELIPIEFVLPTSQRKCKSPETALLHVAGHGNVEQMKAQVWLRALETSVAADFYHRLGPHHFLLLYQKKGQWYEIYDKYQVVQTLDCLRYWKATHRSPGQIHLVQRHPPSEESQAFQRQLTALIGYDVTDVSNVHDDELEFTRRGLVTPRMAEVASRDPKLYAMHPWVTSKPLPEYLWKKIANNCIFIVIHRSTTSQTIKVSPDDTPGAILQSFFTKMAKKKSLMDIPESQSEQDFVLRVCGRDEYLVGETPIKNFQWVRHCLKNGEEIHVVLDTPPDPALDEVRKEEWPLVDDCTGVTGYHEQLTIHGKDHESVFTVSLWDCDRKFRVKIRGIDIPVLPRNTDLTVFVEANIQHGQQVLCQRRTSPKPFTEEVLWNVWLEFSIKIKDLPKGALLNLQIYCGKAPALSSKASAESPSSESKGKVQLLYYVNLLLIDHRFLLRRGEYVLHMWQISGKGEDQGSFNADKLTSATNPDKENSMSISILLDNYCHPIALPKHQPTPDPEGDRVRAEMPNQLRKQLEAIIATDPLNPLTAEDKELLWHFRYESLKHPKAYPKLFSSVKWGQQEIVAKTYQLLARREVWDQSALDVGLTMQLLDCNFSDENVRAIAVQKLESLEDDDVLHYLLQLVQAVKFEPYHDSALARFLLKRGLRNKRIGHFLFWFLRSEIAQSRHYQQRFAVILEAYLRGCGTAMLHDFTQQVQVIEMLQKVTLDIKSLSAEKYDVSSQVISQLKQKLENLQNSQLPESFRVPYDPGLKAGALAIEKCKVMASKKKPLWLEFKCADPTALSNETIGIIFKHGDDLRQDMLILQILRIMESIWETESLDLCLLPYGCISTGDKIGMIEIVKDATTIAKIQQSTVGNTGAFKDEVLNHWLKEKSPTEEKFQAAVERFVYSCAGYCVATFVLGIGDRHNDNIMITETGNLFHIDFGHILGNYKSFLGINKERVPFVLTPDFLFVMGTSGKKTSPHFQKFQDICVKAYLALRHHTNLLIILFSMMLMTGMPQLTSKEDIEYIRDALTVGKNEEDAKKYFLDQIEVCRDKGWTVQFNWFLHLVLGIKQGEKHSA
T2 sequence (Q8WYR1 whole entry partner): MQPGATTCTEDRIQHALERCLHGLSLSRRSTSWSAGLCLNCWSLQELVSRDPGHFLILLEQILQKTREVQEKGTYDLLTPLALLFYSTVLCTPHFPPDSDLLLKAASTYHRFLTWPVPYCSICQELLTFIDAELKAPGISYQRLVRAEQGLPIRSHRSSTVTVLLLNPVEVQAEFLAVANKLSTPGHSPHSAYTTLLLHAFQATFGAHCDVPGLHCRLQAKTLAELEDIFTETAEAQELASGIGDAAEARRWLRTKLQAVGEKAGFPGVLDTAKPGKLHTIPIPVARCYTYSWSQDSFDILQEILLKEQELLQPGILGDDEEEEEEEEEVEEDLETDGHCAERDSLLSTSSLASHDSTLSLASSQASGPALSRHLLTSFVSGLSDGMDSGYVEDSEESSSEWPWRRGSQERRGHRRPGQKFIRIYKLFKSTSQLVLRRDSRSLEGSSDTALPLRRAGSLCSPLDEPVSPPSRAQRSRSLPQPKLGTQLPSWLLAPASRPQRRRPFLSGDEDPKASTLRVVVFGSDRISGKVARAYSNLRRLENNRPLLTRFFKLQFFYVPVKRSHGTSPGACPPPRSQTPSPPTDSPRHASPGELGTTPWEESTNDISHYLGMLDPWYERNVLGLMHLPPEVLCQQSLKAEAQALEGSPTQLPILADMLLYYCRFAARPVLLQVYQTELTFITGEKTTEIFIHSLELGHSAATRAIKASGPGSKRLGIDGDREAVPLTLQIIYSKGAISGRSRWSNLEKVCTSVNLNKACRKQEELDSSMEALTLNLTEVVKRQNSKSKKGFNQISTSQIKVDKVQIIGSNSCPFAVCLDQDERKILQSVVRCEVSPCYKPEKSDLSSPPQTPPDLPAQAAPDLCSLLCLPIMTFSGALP

Structure (SMILES)	IC50 (PI3Kβ)	IC50 (PI3Kγ)	IC50 (PI3Kδ)	PI3Kγ/PI3Kβ ratio (PI3Kβ)	PI3Kγ/PI3Kβ ratio (PI3Kβ; as stated in b147)
C[C@H](Nc1nc(N)nc(N)c1C#N)c1nc2cccc(Cl)c2c(=O)n1-c1ccccc1 [Compound X, (S)-2,4-diamino-6-((1-(5-chloro-4-oxo-3-phenyl-3,4-dihydroquinazolin-2-yl)ethyl)amino)pyrimidine-5-carbonitrile, reference compound]	11 nM	7 nM	0.2 nM	0.6	less than 1 fold
C[C@H](Nc1nc(N)nc(N)c1C#N)c1nc2cccc(Cl)c2c(=O)n1N1CCN(C2COC2)CC1 [Compound 97, (S)-2,4-diamino-6-((1-(5-chloro-3-(4-(oxetan-3-yl)piperazin-1-yl)-4-oxo-3,4-dihydroquinazolin-2-yl)ethyl)amino)pyrimidine-5-carbonitrile]	93 nM	460 nM	15 nM	–	–
C[C@H](Nc1nc(N)nc(N)c1Cl)c1nc2c(F)ccc(Cl)c2c(=O)n1N1CCNCC1 [Compound 20, (S)-5-chloro-2-(1-((2,6-diamino-5-chloropyrimidin-4-yl)amino)ethyl)-8-fluoro-3-(piperazin-1-yl)quinazolin-4(3H)-one]	40 nM	> 10000 nM	20 nM	–	–
C[C@H](Nc1nc(N)nc(N)c1C#N)c1nc2cccc(Cl)c2c(=O)n1[C@@H]1CCOC1 [Compound 137, 2,4-diamino-6-(((S)-1-(5-chloro-4-oxo-3-((R)-tetrahydrofuran-3-yl)-3,4-dihydroquinazolin-2-yl)ethyl)amino)pyrimidine-5-carbonitrile]	47 nM	229 nM	5 nM	–	–
C[C@H](Nc1ncnc2scnc12)c1nc2c(F)ccc(Cl)c2c(=O)n1N1CCNCC1 [Compound 50, (S)-5-chloro-8-fluoro-3-(piperazin-1-yl)-2-(1-(thiazolo[5,4-d]pyrimidin-7-ylamino)ethyl)quinazolin-4(3H)-one]	15 nM	> 10000 nM	2 nM	–	–
N#Cc1c(N)ncnc1N[C@H](c1nc2cccc(Cl)c2c(=O)n1N1CCNCC1)C1CC1 [Compound 102, (S)-4-amino-6-(((5-chloro-4-oxo-3-(piperazin-1-yl)-3,4-dihydroquinazolin-2-yl)(cyclopropyl)methyl)amino)pyrimidine-5-carbonitrile]	57 nM	> 10000 nM	2 nM	–	–
N#Cc1c(N)nc(N)nc1N[C@H](c1nc2c(F)ccc(Cl)c2c(=O)n1N1CCNCC1)C1CC1 [Compound 48, (S)-2,4-diamino-6-(((5-chloro-8-fluoro-4-oxo-3-(piperazin-1-yl)-3,4-dihydroquinazolin-2-yl)(cyclopropyl)methyl)amino)pyrimidine-5-carbonitrile]	3 nM	3300 nM	1 nM	–	–
C[C@H](Nc1ncnc(N)c1C#N)c1nc2cccc(Cl)c2c(=O)n1N1CCNC2(CC2)C1 [Compound 63, (S)-4-amino-6-((1-(5-chloro-4-oxo-3-(4,7-diazaspiro[2.5]octan-7-yl)-3,4-dihydroquinazolin-2-yl)ethyl)amino)pyrimidine-5-carbonitrile]	5 nM	> 10000 nM	2 nM	–	–
CCN1CCC(n2c([C@H](C)Nc3ncnc4[nH]cnc34)nc3cccc(Cl)c3c2=O)C1 (stereo partly drawn) [Compound 135, 2-((S)-1-((9H-purin-6-yl)amino)ethyl)-5-chloro-3-(1-ethylpyrrolidin-3-yl)quinazolin-4(3H)-one]	4700 nM	> 10000 nM	70 nM	–	–
CC(C)C[C@H](Nc1nc(N)nc(N)c1C#N)c1nc2cccc(Cl)c2c(=O)n1N1CCNCC1 [Compound 75, (S)-2,4-diamino-6-((1-(5-chloro-4-oxo-3-(piperazin-1-yl)-3,4-dihydroquinazolin-2-yl)-3-methylbutyl)amino)pyrimidine-5-carbonitrile]	37 nM	> 10000 nM	15 nM	–	–
C[C@H](Nc1nc(N)nc(N)c1C#N)c1nc2cccc(Cl)c2c(=O)n1[C@@H]1CCCNC1 (stereo in doubt) [Compound 27, 2,4-diamino-6-(((S)-1-(5-chloro-4-oxo-3-((R)-piperidin-3-yl)-3,4-dihydroquinazolin-2-yl)ethyl)amino)pyrimidine-5-carbonitrile]	5600 nM	> 10000 nM	830 nM	–	–
Cc1nc(N)nc(N[C@@H](C)c2nc3cccc(Cl)c3c(=O)n2N2CCN(CC(F)F)CC2)c1C#N [Compound 114, (S)-2-amino-4-((1-(5-chloro-3-(4-(2,2-difluoroethyl)piperazin-1-yl)-4-oxo-3,4-dihydroquinazolin-2-yl)ethyl)amino)-6-methylpyrimidine-5-carbonitrile]	300 nM	560 nM	26 nM	–	–

Now from value to compound, other results behind:

IC50 (PI3Kβ)	IC50 (PI3Kγ)	IC50 (PI3Kδ)	Structure (SMILES)	PI3Kγ/PI3Kβ ratio (PI3Kβ)	PI3Kγ/PI3Kβ ratio (PI3Kβ; as stated in b147)
160 nM	> 10000 nM	7 nM	C[C@H](Nc1ncnc(N)c1C#N)c1nc2cccc(Cl)c2c(=O)n1C1CCNC1 (stereo partly drawn) [Compound 85, 4-amino-6-(((1S)-1-(5-chloro-4-oxo-3-(pyrrolidin-3-yl)-3,4-dihydroquinazolin-2-yl)ethyl)amino)pyrimidine-5-carbonitrile]	–	–
350 nM	> 10000 nM	140 nM	C[C@H](Nc1nc(N)nc(N)c1C#N)c1nc2cccc(Cl)c2c(=O)n1[C@H]1CCNC1 [Compound 30, 2,4-diamino-6-(((S)-1-(5-chloro-4-oxo-3-((S)-pyrrolidin-3-yl)-3,4-dihydroquinazolin-2-yl)ethyl)amino)pyrimidine-5-carbonitrile]	–	–
2 nM	> 10000 nM	2 nM	C[C@H](Nc1nc(N)nc(N)c1C#N)c1nc2cccc(Cl)c2c(=O)n1C1CCNCC1 [Compound 26, (S)-2,4-diamino-6-((1-(5-chloro-4-oxo-3-(piperidin-4-yl)-3,4-dihydroquinazolin-2-yl)ethyl)amino)pyrimidine-5-carbonitrile]	–	–
15 nM	> 10000 nM	5 nM	CC[C@H](Nc1nc(N)nc(N)c1C#N)c1nc2cccc(Cl)c2c(=O)n1C1CCNCC1 [Compound 22, (S)-2,4-diamino-6-((1-(5-chloro-4-oxo-3-(piperidin-4-yl)-3,4-dihydroquinazolin-2-yl)propyl)amino)pyrimidine-5-carbonitrile]	–	–
130 nM	> 10000 nM	5 nM	Cc1cccc2nc([C@H](C)Nc3ncnc(N)c3C#N)n(C3CCNCC3)c(=O)c12 [Compound 60, (S)-4-amino-6-((1-(5-methyl-4-oxo-3-(piperidin-4-yl)-3,4-dihydroquinazolin-2-yl)ethyl)amino)pyrimidine-5-carbonitrile]	–	–
63 nM	> 10000 nM	9 nM	C[C@H](Nc1ncnc2scnc12)c1nc2cccc(Cl)c2c(=O)n1C1CCNCC1 [Compound 18, (S)-5-chloro-3-(piperidin-4-yl)-2-(1-(thiazolo[5,4-d]pyrimidin-7-ylamino)ethyl)quinazolin-4(3H)-one]	–	–
370 nM	> 10000 nM	13 nM	C[C@H](Nc1ncnc(N)c1C#N)c1nc2cccc(Cl)c2c(=O)n1N1CCCNCC1 [Compound 66, (S)-4-amino-6-((1-(5-chloro-3-(1,4-diazepan-1-yl)-4-oxo-3,4-dihydroquinazolin-2-yl)ethyl)amino)pyrimidine-5-carbonitrile]	–	–
